According to PubChem BioAssay (NCI):
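Grown in 96-well plates, cells were treated for 48 hours with each compound at five concentrations. Insufficient inhibition: endpoint recorded as highest concentration tested. Definition used: TGI = concentration required for complete inhibition of growth.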 Where a SMILES comes first, the peptide text is derived from it. The star is where a group is joined. Cbz = O=C(OCc1ccccc1)*

test system: HCC-2998 colon; assay: inhibition of tumour cell growth, NCI panel, 48 h

`CN1CCN(C(=S)N2CCN(C)CC2)CC1` and `CC1CCC(=O)C(C(=O)CC2CC(=O)N(C)C(=O)C2)C1` (stereo not drawn) cannot be ordered by TGI: over 100 µM for the first, over 100 µM for the second.

First: O=Cc1[nH]c(=O)[nH]c(=O)c1C(=O)O
Second: C/C=C(/C)C(=O)O[C@@H]1CCN2CC[C@H](COC(=O)/C(=C/C)CO)C12 (stereo partly drawn)
The TGI of the first is higher: over 100 µM for the first, 44 µM for the second.

`Nc1nc(SC/C=C/c2ccccc2)c2[nH]cnc2n1` and `CSc1nc(Nc2cccc(C(F)(F)F)c2)c2c(N)nn(C)c2n1` cannot be ordered by TGI: over 100 µM for the first, over 100 µM for the second.

Going from `CCCCNC(=S)Nc1nc(C(=O)NNC(=S)Nc2ccccc2)cs1` to `COc1cc2c(C)cc(O)cc2c2cc(O)c(C)cc12`, the TGI falls from over 100 µM to 24.4 µM.

Work on `COc1ccc(-[n+]2nc(S(=O)(=O)O)c(/C=C/c3ccc(N(C)C)cc3)cc2C#N)cc1` yielded a TGI of over 100 µM.

test system: MDA-MB-231 breast; assay: inhibition of tumour cell growth, NCI panel, 48 h

First: COc1cc(NS(C)(=O)=O)ccc1Nc1c2ccccc2nc2c1[nH]c1ccc(NC3OC(CO)C(O)C(O)C3O)cc12 (stereo not drawn)
Second: COc1ccc(C(OCC2OC(n3cc(C)c(=O)[nH]c3=O)CC2n2cc(Cn3cc(Cl)c(=O)[nH]c3=O)nn2)(c2ccccc2)c2ccccc2)cc1 (stereo not drawn)
The TGI of the first is lower: 8.11 µM for the first, over 100 µM for the second.

Going from `O=C(O)CCC(NC(=O)OCc1ccccc1)C(=O)NC(Cc1cnc[nH]1)C(=O)O` (stereo not drawn) (Cbz-Glu-His-OH; configuration not given here) to `CCCCNC(=S)Nc1nc(C(=O)NNC(=S)Nc2ccccc2)cs1`, the TGI falls from over 100 µM to 87.2 µM.

Compared with `O=[N+]([O-])/C(C(Cl)=C(Cl)Cl)=C(/Cl)Sc1ccccc1`, `Nc1nc(SC/C=C/c2ccccc2)c2[nH]cnc2n1` is higher in TGI: 3.4 µM for the first, over 100 µM for the second.

Going from `Clc1ccc(C2C3COc4ccccc4C3=NN2c2ccccc2)cc1` (stereo not drawn) to `CC(=O)c1[nH]c(NCc2ccccc2)c(C(=S)Nc2ccccc2)c1N`, the TGI falls from over 100 µM to 34.1 µM.

`COC(=O)C1=C(O)C(C(=O)OC)[C@]2(O)[C@H](C(=O)OC)[C@H]1C[C@@H](c1ccc(C(F)(F)F)cc1)[C@H]2C(=O)OC` (stereo partly drawn) and `CCOC(=O)C12OC(CCC1=O)C(C(=O)OC)=C2C(=O)OC` (stereo not drawn) cannot be ordered by TGI: over 100 µM for the first, over 10 µM for the second.

`CCOC(=O)NC(Nc1ccc(S(=O)(=O)Nc2nc(C)cc(C)n2)cc1)(C(=O)OCC)C(F)(F)F` (stereo not drawn) and `CSc1nc(Nc2cccc(C(F)(F)F)c2)c2c(N)nn(C)c2n1` cannot be ordered by TGI: over 100 µM for the first, over 100 µM for the second.

`CN1CCN(C(=S)N2CCN(C)CC2)CC1` and `CC1CCC(=O)C(C(=O)CC2CC(=O)N(C)C(=O)C2)C1` (stereo not drawn) cannot be ordered by TGI: over 100 µM for the first, over 100 µM for the second.

`O=Cc1[nH]c(=O)[nH]c(=O)c1C(=O)O` and `C/C=C(/C)C(=O)O[C@@H]1CCN2CC[C@H](COC(=O)/C(=C/C)CO)C12` (stereo partly drawn) cannot be ordered by TGI: over 100 µM for the first, over 100 µM for the second.

Going from `COc1cc2c(C)cc(O)cc2c2cc(O)c(C)cc12` to `COc1ccc(-[n+]2nc(S(=O)(=O)O)c(/C=C/c3ccc(N(C)C)cc3)cc2C#N)cc1`, the TGI rises from 19.2 µM to over 100 µM.

test system: MOLT-4 leukemia; assay: inhibition of tumour cell growth, NCI panel, 48 h

Compared with `COc1cc(NS(C)(=O)=O)ccc1Nc1c2ccccc2nc2c1[nH]c1ccc(NC3OC(CO)C(O)C(O)C3O)cc12` (stereo not drawn), `COc1ccc(C(OCC2OC(n3cc(C)c(=O)[nH]c3=O)CC2n2cc(Cn3cc(Cl)c(=O)[nH]c3=O)nn2)(c2ccccc2)c2ccccc2)cc1` (stereo not drawn) is higher in TGI: 3.65 µM for the first, over 100 µM for the second.

`O=C(O)CCC(NC(=O)OCc1ccccc1)C(=O)NC(Cc1cnc[nH]1)C(=O)O` (stereo not drawn) (Cbz-Glu-His-OH; configuration not given here) and `CCCCNC(=S)Nc1nc(C(=O)NNC(=S)Nc2ccccc2)cs1` cannot be ordered by TGI: over 100 µM for the first, over 100 µM for the second.

Going from `O=[N+]([O-])/C(C(Cl)=C(Cl)Cl)=C(/Cl)Sc1ccccc1` to `Nc1nc(SC/C=C/c2ccccc2)c2[nH]cnc2n1`, the TGI rises from 1.23 µM to over 100 µM.

Going from `Clc1ccc(C2C3COc4ccccc4C3=NN2c2ccccc2)cc1` (stereo not drawn) to `CC(=O)c1[nH]c(NCc2ccccc2)c(C(=S)Nc2ccccc2)c1N`, the TGI rises from 47 µM to over 100 µM.

`COC(=O)C1=C(O)C(C(=O)OC)[C@]2(O)[C@H](C(=O)OC)[C@H]1C[C@@H](c1ccc(C(F)(F)F)cc1)[C@H]2C(=O)OC` (stereo partly drawn) and `CCOC(=O)C12OC(CCC1=O)C(C(=O)OC)=C2C(=O)OC` (stereo not drawn) cannot be ordered by TGI: over 100 µM for the first, over 10 µM for the second.

`CCOC(=O)NC(Nc1ccc(S(=O)(=O)Nc2nc(C)cc(C)n2)cc1)(C(=O)OCC)C(F)(F)F` (stereo not drawn) and `CSc1nc(Nc2cccc(C(F)(F)F)c2)c2c(N)nn(C)c2n1` cannot be ordered by TGI: over 100 µM for the first, over 100 µM for the second.

`CN1CCN(C(=S)N2CCN(C)CC2)CC1` and `CC1CCC(=O)C(C(=O)CC2CC(=O)N(C)C(=O)C2)C1` (stereo not drawn) cannot be ordered by TGI: over 100 µM for the first, over 100 µM for the second.

`O=Cc1[nH]c(=O)[nH]c(=O)c1C(=O)O` and `C/C=C(/C)C(=O)O[C@@H]1CCN2CC[C@H](COC(=O)/C(=C/C)CO)C12` (stereo partly drawn) cannot be ordered by TGI: over 100 µM for the first, over 100 µM for the second.

Compared with `COc1cc2c(C)cc(O)cc2c2cc(O)c(C)cc12`, `COc1ccc(-[n+]2nc(S(=O)(=O)O)c(/C=C/c3ccc(N(C)C)cc3)cc2C#N)cc1` is higher in TGI: 25.1 µM for the first, over 100 µM for the second.

test system: NCI-H226 lung; assay: inhibition of tumour cell growth, NCI panel, 48 h

Going from `COc1cc(NS(C)(=O)=O)ccc1Nc1c2ccccc2nc2c1[nH]c1ccc(NC3OC(CO)C(O)C(O)C3O)cc12` (stereo not drawn) to `COc1ccc(C(OCC2OC(n3cc(C)c(=O)[nH]c3=O)CC2n2cc(Cn3cc(Cl)c(=O)[nH]c3=O)nn2)(c2ccccc2)c2ccccc2)cc1` (stereo not drawn), the TGI rises from 0.201 µM to over 100 µM.

`O=C(O)CCC(NC(=O)OCc1ccccc1)C(=O)NC(Cc1cnc[nH]1)C(=O)O` (stereo not drawn) (Cbz-Glu-His-OH; configuration not given here) and `CCCCNC(=S)Nc1nc(C(=O)NNC(=S)Nc2ccccc2)cs1` cannot be ordered by TGI: over 100 µM for the first, over 100 µM for the second.

First: O=[N+]([O-])/C(C(Cl)=C(Cl)Cl)=C(/Cl)Sc1ccccc1
Second: Nc1nc(SC/C=C/c2ccccc2)c2[nH]cnc2n1
The TGI of the first is lower: 24.3 µM for the first, over 100 µM for the second.

Going from `Clc1ccc(C2C3COc4ccccc4C3=NN2c2ccccc2)cc1` (stereo not drawn) to `CC(=O)c1[nH]c(NCc2ccccc2)c(C(=S)Nc2ccccc2)c1N`, the TGI falls from over 100 µM to 40.2 µM.

First: COC(=O)C1=C(O)C(C(=O)OC)[C@]2(O)[C@H](C(=O)OC)[C@H]1C[C@@H](c1ccc(C(F)(F)F)cc1)[C@H]2C(=O)OC (stereo partly drawn)
Second: CCOC(=O)C12OC(CCC1=O)C(C(=O)OC)=C2C(=O)OC (stereo not drawn)
The TGI of the first is lower: 7.36 µM for the first, over 10 µM for the second.

`CCOC(=O)NC(Nc1ccc(S(=O)(=O)Nc2nc(C)cc(C)n2)cc1)(C(=O)OCC)C(F)(F)F` (stereo not drawn) and `CSc1nc(Nc2cccc(C(F)(F)F)c2)c2c(N)nn(C)c2n1` cannot be ordered by TGI: over 100 µM for the first, over 100 µM for the second.

`CN1CCN(C(=S)N2CCN(C)CC2)CC1` and `CC1CCC(=O)C(C(=O)CC2CC(=O)N(C)C(=O)C2)C1` (stereo not drawn) cannot be ordered by TGI: over 100 µM for the first, over 100 µM for the second.

`O=Cc1[nH]c(=O)[nH]c(=O)c1C(=O)O` and `C/C=C(/C)C(=O)O[C@@H]1CCN2CC[C@H](COC(=O)/C(=C/C)CO)C12` (stereo partly drawn) cannot be ordered by TGI: over 100 µM for the first, over 100 µM for the second.

Compared with `COc1cc2c(C)cc(O)cc2c2cc(O)c(C)cc12`, `COc1ccc(-[n+]2nc(S(=O)(=O)O)c(/C=C/c3ccc(N(C)C)cc3)cc2C#N)cc1` is higher in TGI: 28.2 µM for the first, over 100 µM for the second.
